Results on six compounds are retold here after patent US12508328B2, “Bio-activated reporters to visualize, in real time, specific gene therapy products” (Northwestern University, priority 2019, dated 2025).

Series [1] concerns the target T1, β-galactosidase (Escherichia coli, UniProt P00722).
T1 construct: purchased Sigma Aldrich
Type of series: biochemical. The note with it: 25° C., TES buffer, 1 mM MgCl2, 150 mM NaCl. As for the experimental part: Catalytic efficiencies for five substrates, 5a-c, ONPG, and PNPG were evaluated by UV-vis spectroscopy (Table 3). ONPG and PNPG are literature standards that were used to ensure the assay was performed adequately and to serve as benchmarks of activation kinetics in the absence of the GdIII chelate. […] Catalytic efficiency is directly related to the imaging window wherein activation to the r1, on state is competing with clearance.
Enzyme activation kinetics were determined by the method of initial rates for compounds 5a-c via the appearance of the nitrophenol byproduct of activation. The characteristic absorption was monitored at 420 nm. Concentrations of substrate used were 0, 0.05, 0.1, 0.12, 0.15, 0.3, 0.4, 0.5, 0.75, 1, and 2 mM. Each concentration was measured in triplicate and exact concentrations were measured by ICP-MS (see Table 2).

A short description of series [2]: Relaxivity (1.4 T) in MOPS and MOPS/CO3^2−. The class given is physicochemical. The note with it: for Δr1 relative to the cleaved control product 11: intramolecular series 10a-d. As to the method:
While measurements of q indicate how well an agent can restrict water access to the GdIII center, the most important property for a bio-activated contrast agent is the change in relaxivity upon enzymatic cleavage (r1). To evaluate the signal change in the presence of CO32−, relaxivities of the intermolecular activated agents were measured in two different buffer conditions, the non-coordinating buffer MOPS and MOPS/CO32−.
T1 relaxation times were obtained for 5a-c (FIG. 13), and complexes 10a-d (FIG. 14), and 11 at 37° C. at 60 MHz (1.4 T) on a Bruker mq60 minispec spectrometer (Billerica, MA). Three 1 mM solutions of each complex were prepared in four different buffer conditions 1) 10 mm 3-(N-morpholino)propanesulfonic acid (MOPS), 100 mm NaCl, pH 7.4, 2) 10 mm MOPS, 24 mm NaHCO3, 100 mm NaCl, pH 7.4, 3) Dulbecco's Phosphate Buffer (DPBS) pH 7.3 Life Technologies, and 4) b-galactosidase enzyme assay buffer, 200 mm sodium phosphate, 100 mm bmercaptoethanol, 2 mm MgCl2, pH 7.3 (FIG. 15). Three sets of five serial dilutions (about 1 mm, 0.5 mm, 0.25 mm, 0.125 mm and 0.0625 mm) were prepared for each complex. T1 relaxation rates were measured using an inversion recovery pule sequence (t1_ir_mb) with a 10 ms first pulse separation, recycle delay and final pulse separation ≥5 T1. T1 relaxation rates were plotted as a function of GdIII concentrations as determined by ICP-MS, r1/r2 was obtained from linear fit of concentration vs. T1 as described in Equation (1).

Series [3] can be described thus: Complex stability measured by relaxivity (T1). The note with it: for change in T1 over time (stability): 1 mM in enzyme buffer pH 7.3, over 140 hours. Type of series: physicochemical.
The target of series [4] is β-gal (Escherichia coli, UniProt P00722). The note with it: for T1 signal in the presence of β-gal compared with cleaved agent 11: 24 h incubation. As to the method: MR images were acquired on a Bruker Pharmscan 7 T imaging spectrometer fitted with shielded gradient coils at 25° C. Image analysis was carried out using Paravision 5.0 p13 software (Bruker, Billerica, MA, USA) with monoexponential curve-fitting of image intensities of selected regions of interest (ROIs) for each axial slice. […] Exact Gd(III) concentration was verified by ICP-MS. Either 10 μL of enzyme stock solution (50% enzyme assay buffer, 50% glycerol, at 521 U/mL β-gal) or 10 μL of a 50% enzyme assay buffer/50% glycerol solution (used as a control) were added to a 190 μL aliquot of each complex. After this addition, the final concentration of each complex was 475 μM, with 26.1 U/mL of β-gal. The solutions were incubated at 37° C. for 24 hours, then aliquoted to 5, ¾″ flame-sealed Pasteur pipets. The bottom sections of the flame-sealed pipets were then scored with a glass scribe, broken into small capillaries, and imaged using a RF RES 300 1H 089/023 quadrature transmit receive 23 mm volume coil (Bruker BioSpin, Billerica, MA, USA). T1 relaxation times were measured using a rapid-acquisition rapid-echo RARE-VTR T1-map pulse sequence with the following imaging parameters: TE (11.0 ms), TR (500.0 ms), field of view (FOV)=25×25 mm2, matrix size (MTX)=256×256, number of axial slices=5, slice thickness (SI)=1.0 mm, and averages (NEX)=3, and total scan time was 2:36:57. T2 values were measured using a multislice multiecho (MSME) T2-map pulse sequence, with static TR (5000 ms) and 32 fitted echoes in 11 ms intervals (11, 22, . . . , 352 ms). Imaging parameters were as follows: FOV=25×25 mm2, MTX=256×256, number of axial slices=4, SI=1.0 mm, NEX=3, and a total scan time=48 min. T1 images and times can be found in FIG. 14 and T2 maps and times can be found in FIG. 18.
Chain of β-gal (P00722 2-1024): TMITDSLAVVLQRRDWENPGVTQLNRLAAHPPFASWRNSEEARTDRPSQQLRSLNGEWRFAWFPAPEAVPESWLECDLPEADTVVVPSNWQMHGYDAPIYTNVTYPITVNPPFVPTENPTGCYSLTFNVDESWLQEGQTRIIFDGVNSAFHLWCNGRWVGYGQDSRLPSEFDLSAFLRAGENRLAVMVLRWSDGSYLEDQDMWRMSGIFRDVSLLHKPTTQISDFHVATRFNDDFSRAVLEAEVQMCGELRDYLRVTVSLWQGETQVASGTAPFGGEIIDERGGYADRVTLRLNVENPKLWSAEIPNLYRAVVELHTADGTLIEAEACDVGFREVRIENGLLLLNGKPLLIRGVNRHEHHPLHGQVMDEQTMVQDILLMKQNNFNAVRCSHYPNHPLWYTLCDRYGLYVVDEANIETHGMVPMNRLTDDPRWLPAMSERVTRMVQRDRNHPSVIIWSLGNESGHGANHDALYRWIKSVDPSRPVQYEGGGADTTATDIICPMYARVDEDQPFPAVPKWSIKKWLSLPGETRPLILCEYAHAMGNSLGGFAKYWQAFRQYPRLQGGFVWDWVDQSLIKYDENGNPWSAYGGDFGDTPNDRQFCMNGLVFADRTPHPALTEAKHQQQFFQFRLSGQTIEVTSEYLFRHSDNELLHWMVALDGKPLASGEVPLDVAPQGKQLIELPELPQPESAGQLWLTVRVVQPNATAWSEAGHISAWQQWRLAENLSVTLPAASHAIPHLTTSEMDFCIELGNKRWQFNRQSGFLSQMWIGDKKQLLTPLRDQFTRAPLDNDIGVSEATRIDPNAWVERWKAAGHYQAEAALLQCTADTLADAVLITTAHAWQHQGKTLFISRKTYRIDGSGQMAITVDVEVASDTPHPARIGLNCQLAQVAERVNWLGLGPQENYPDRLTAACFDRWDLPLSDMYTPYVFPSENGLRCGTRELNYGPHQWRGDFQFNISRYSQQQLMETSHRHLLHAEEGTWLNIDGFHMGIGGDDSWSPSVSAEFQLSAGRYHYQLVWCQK

The conditions of series [5]: cited from earlier work; for link to nephrogenic systemic fibrosis (NSF): clinical use.
For series [6] the following is noted: cited from earlier work.
[7] abbreviates: intravenous, two-compartment open-model.

A word on the Km: it is the concentration of substrate that gives half-maximal velocity.

T1 sequence (P00722 2-1024): as above

As for `O=C([O-])CN1CCN(CCNC(=O)OCc2ccc(O[C@@H]3O[C@H](CO)[C@H](O)[C@H](O)[C@H]3O)c([N+](=O)[O-])c2)CCN(CC(=O)[O-])CCN(CC(=O)[O-])CC1.[Gd+3]` [5c, Gadolinium(III)-1-(4-(2-(1-(4,7,10-triscarboxymethyl-(1,4,7,10tetraazacyclododecyl)))ethylcarbamoyloxymethyl)-2-nitrophenyl)-β-D-galactopyranose], the Kcat in series [1] (420 nm) is recorded as 765 +/− 37.8 S−1. Further, in series [1] (nitro-phenol absorbance 420 nm), the Km is 129 µM. Also, the “Δr1 relative to the cleaved complex 11 (percent change in relaxivity, dark to bright)” value in series [2] (intermolecular series 5a-c, 37° C.) is reported as “negative”.

On to `CCOC(=O)CNc1cc(COC(=O)NCCN2CCN(CC(=O)[O-])CCN(CC(=O)[O-])CCN(CC(=O)[O-])CC2)ccc1O[C@@H]1O[C@H](CO)[C@H](O)[C@H](O)[C@H]1O.[Gd+3]` [10a, Gadolinium(III)-1-(4-(2-(1-(4,7,10-triscarboxymethyl-(1,4,7,10tetraazacyclododecyl)))ethylcarbamoyloxymethyl)-2-((2-ethoxy-2-oxoethyl)amino)phenyl)-β-D-galactopyranose], for which the “change in T1 over time (stability)” value in series [3] is “No significant change in T1”. Also, in series [2] (10a-d), the “relaxivity within the intramolecular series” value is “highest relativity of the series”. Also, the “Δr1 relative to the cleaved control product 11” value in series [2] (37° C.) is reported as “negative”.

With `CCOC(=O)CCCNc1cc(COC(=O)NCCN2CCN(CC(=O)[O-])CCN(CC(=O)[O-])CCN(CC(=O)[O-])CC2)ccc1O[C@@H]1O[C@H](CO)[C@H](O)[C@H](O)[C@H]1O.[Gd+3]` [10b, Gadolinium(III)-1-(4-(2-(1-(4,7,10-triscarboxymethyl-(1,4,7,10tetraazacyclododecyl)))ethylcarbamoyloxymethyl)-2-((4-ethoxy-4-oxobutyl)amino)phenyl)-β-D-galactopyranose], the “change in T1 over time (stability)” value in series [3] is recorded as “No significant change in T1”. In addition, the “Δr1 in MOPS” value in series [2] (10a-d, MOPS) was “largest”. The “Δr1 relative to the cleaved control product 11” value in series [2] (37° C.) is “positive”. In series [4] (7 T T1 solution phantoms), the “change in MR contrast +/−β-gal” value is recorded as “greatest change in MR contrast”. Also, the “T1 signal in the presence of β-gal compared with cleaved agent 11” value in series [4] (7 T solution phantoms) is reported as “does not appear to fully activate”. The same compound returned a T1 in series [4] (7 T solution phantoms, assay buffer, 24 h, +β-gal 26.1 U/mL) of 378 ms.

Take `CCOC(=O)CCCCCCCNc1cc(COC(=O)NCCN2CCN(CC(=O)[O-])CCN(CC(=O)[O-])CCN(CC(=O)[O-])CC2)ccc1O[C@@H]1O[C@H](CO)[C@H](O)[C@H](O)[C@H]1O.[Gd+3]` [10d, Gadolinium(III)-1-(4-(2-(1-(4,7,10-triscarboxymethyl-(1,4,7,10tetraazacyclododecyl)))ethylcarbamoyloxymethyl)-2-((8-ethoxy-8-oxooctyl)amino)phenyl)-β-D-galactopyranose]: in series [3], the “change in T1 over time (stability)” value is recorded as “No significant change in T1”. Further, in series [3] (cell culture media, over 140 hours), the “change in T1 over time (stability) in cell culture media” value is “No significant change in T1”. Moreover, in series [2] (37° C.), the “Δr1 relative to the cleaved control product 11” value is “negative”. The “T1 signal in the presence of β-gal compared with cleaved agent 11” value in series [4] (7 T solution phantoms) is “approximately the same”.

With `CNC[C@H](O)[C@@H](O)[C@H](O)[C@H](O)CO.CNC[C@H](O)[C@@H](O)[C@H](O)[C@H](O)CO.O=C([O-])CN(CCN(CC(=O)[O-])CC(=O)O)CCN(CC(=O)[O-])CC(=O)O.[Gd+3]` [Magnevist, gadopentate dimeglumine], the “link to nephrogenic systemic fibrosis (NSF)” value in series [5] is reported as “associated with the onset of NSF”. For the same compound, in series [5] (intrathecal), the “dose shown to enhance after intrathecal contrast delivery” value is 0.004 mmol/kg. Moreover, the “safe dose in preclinical safety studies” value in series [5] (intravenous delivery) was 50 × the normal dose. In series [6] (equal to the extracellular space), the volume of distribution is reported as ~266 mL/kg. Further, the “binding to human serum protein” value in series [6] (in vivo) is listed as “has not been shown to bind”. In series [6] (setting [7]), the distribution half-life is 12 min and the elimination half-life was 1.6 h. In series [6] (intravenous), the “dose excreted in the urine by 24 hours” value is 91% and the “dose excreted in the urine within 6 hours” value is listed as ~83%.

For the compound `CNC(=O)CN(CCN(CCN(CC(=O)[O-])CC(=O)NC)CC(=O)[O-])CC(=O)[O-].[Gd+3]` [Omniscan], the “link to nephrogenic systemic fibrosis (NSF)” value in series [5] was “associated with the onset of NSF”.
